Measured values as given in patent publication US5721210A, “Cyclic cell adhesion modulation compounds” (priority 1995, dated 1998).
pIC50: −log10 of the molar value. Read-outs that look alike come from different tables or passages of the source. Bridge positions count the residues as written; N and C are the ends. Square brackets hold non-standard residues; d marks the D form. Peptide text beside a SMILES is read from it. * marks the point of attachment. Acetyl(1-adamantyl) = O=C(CC12CC3CC(CC(C3)C1)C2)*; 2Thi = N[C@@H](Cc1cccs1)C(=O)O; 4Amb = NCc1ccc(C(=O)O)cc1

Experiments:
[1] = system: U937 cells (fibronectin receptor) adhering to fibronectin-coated wells; details: for IC50: read-out: IC50 μM, U937 cells on fibronectin-coated wells, 60 min at 37° C., concentration at which adhesion is inhibited to 50% of control
[2] = system: Jurkat T-cells adhering to IL-1 stimulated human umbilical vein endothelial cell monolayers; experiment: Jurkat-endothelial cell adhesion assay (Cell Adhesion Inhibition Assay II); assay type: cell-based; details: for 10 μM% (percentage inhibition at 10 μM): 10 μM peptide; for 10 μM% (percentage inhibition at 10 μM) / 200 μM% (percentage inhibition at 200 μM): Jurkat cells on IL-1 stimulated endothelial monolayers, 20 min at 37° C.; for 200 μM% (percentage inhibition at 200 μM): 200 μM peptide
Procedure: The following assay established the activity of the present compound in inhibiting cell-cell adhesion in a representative in vitro system. This assay measures the adhesive interactions of T-cells to endothelial cell monolayers in the presence of a test compound. The test compound is added in increasing concentrations with T-cells and this is added to endothelial cell monolayers. The plates are incubated, washed and the percentage of attached cells is quantitated.
Human umbilical vein endothelial cells were purchased from Clonetics (San Diego, Calif.) at passage number 2. The cells were grown on 0.5% porcine skin gelatin pre-coated flasks (Sigma, St. Louis, Mo.) in EGM-UV media (Clonetics, San Diego, Calif.) supplemented with 10% fetal bovine serum. Cells were refed every 2-3 days reaching confluence by day 4 to 6. […] The endothelial cells were not used following passage 14-15.
The T-cell line Jurkat was obtained from American Type Tissue Culture Collection (Rockville, Md.). The cells were cultured in RPMI media containing 10% fetal calf serum. The cells were washed twice with Hank's Balanced Salt Solution (HBSS) and resuspended in Dulbecco's […] Eagle's Media (DMEM) containing 2.5 mg/ml Human Serum Albumin (HSA). The Jurkat cells (1×10^6 cells/ml) were stained with 10 μg/ml fluorescein diacetate (Sigma, St. Louis, Mo.) in HSSS containing 5% fetal calf serum. The cells were stained for 15 minutes in the dark at room temperature, washed 2 times, and resuspended in a DMEM-HSA solution.
Confluent endothelial monolayers grown in 96-well tissue culture plates were stimulated for 4 hours at 37° C. with 0.1 ng/ml (^~ 50 U/ml) recombinant IL-1 (Amgen, Thousand Oaks, Calif.). Following this incubation, the monolayers were washed twice with HBSS and 0.1 ml of DMEM-HSA solution was added. Jurkat cells (5×10^5 cells) were combined with appropriate concentrations of a peptide to be tested and 0.1 ml of the Jurkat-peptide mixture were added to the endothelial cell monolayers. Generally, 200 and 10 μM peptide concentrations were tested. […] The plates were placed on ice for 5 minutes to allow for Jurkat cell settling and then incubated at 37° C. for 20 minutes. Following this incubation, the monolayers were washed twice with PBS containing 1 mM calcium chloride and 1 mM magnesium chloride and the plates were read using a Pandex Fluorescence Concentration Analyzer (Baxter, Mundelein, Ill.). Fluorescence in each well was measured as arbitrary fluorescence units and percent adhesion in the absence of a peptide was adjusted to 100% and the percentage adhesion in the presence of the peptide was calculated. Monolayers were also fixed in 3% paraformaldehyde and evaluated microscopically to verify adhesion.

Row | Compound | IC50 [1] [µM] | other results
1 | N=C(N)NCCC[C@@H]1NC(=O)c2ccc(cc2)CNC(=O)[C@H](CC(=O)O)NC(=O)CNC1=O (cyclo(RGD[4Amb])) | – | pIC50 [1]: 3.60
2 | N=C(N)NCCC[C@@H]1NC(=O)CNC(=O)C[C@@H](C(N)=O)NC(=O)[C@@H]2CCCN2C(=O)[C@H](CO)NC(=O)[C@H](CC(=O)O)NC(=O)CNC1=O [Peptide 22, G*RGDSPD*-NH2] (GRGDSPD-NH2; lactam N-7) | 112 | –
3 | N=C(N)NCCC[C@@H]1NC(=O)CNC(=O)C[C@@H](C(N)=O)NC(=O)[C@@H]2CCCN2C(=O)[C@H](CO)NC(=O)[C@H](CC(=O)O)NC(=O)CNC1=O [Peptide 47, G*RGDSPD*-NH2] (GRGDSPD-NH2; lactam N-7) | 134 | –
4 | N=C(N)NCCC[C@@H]1NC(=O)[C@@H](N)CSSC[C@@H](C(=O)O)NC(=O)[C@H](Cc2cccs2)NC(=O)[C@H](CC(=O)O)NC(=O)CNC1=O [Peptide 70, C*RGD(TA)C*] (H-CRGD[2Thi]C-OH; disulfide 1-6) | 190 | –
5 | COc1ccc(C[C@@H]2NC(=O)[C@H](CC(=O)O)NC(=O)CNC(=O)[C@H](CCCNC(=N)N)NC(=O)[C@@H](NC(=O)CNC(=O)CNC(=O)CC34CC5CC(CC(C5)C3)C4)CSSC[C@@H](C(N)=O)NC(=O)[C@@H]3CCCN3C2=O)cc1 [Peptide 96, (Ada)-GGC*RGDY(p-OCH3 -Tyr)PC*-NH2] ({Acetyl(1-adamantyl)}-GGCRGDY(Me)PC-NH2; disulfide 3-9) | 9 | –
6 | N=C(N)NCCC[C@H](N)C(=O)N[C@H]1CSSC[C@@H](C(=O)O)NC(=O)[C@H](Cc2cccs2)NC(=O)[C@H](CC(=O)O)NC1=O [Peptide 101, RC*D(TA)C*] (H-RCD[2Thi]C-OH; disulfide 2-5) | 258 | –
7 | (1-FCA)RC*D(TTC)C* [Peptide 132] | 92 | –
8 | (CPA)-RC*D-(3-thioPro)C* [Peptide 110] | 8 | –
9 | (FMOC)-RC*(DTC)C* [Peptide 156] | – | 10 μM% (percentage inhibition at 10 μM) [2]: 90%; 200 μM% (percentage inhibition at 200 μM) [2]: 32%
10 | (FMOC)-RC*D(TTC)C* [Peptide 166] | – | 10 μM% (percentage inhibition at 10 μM) [2]: 18%; 200 μM% (percentage inhibition at 200 μM) [2]: 11%; pIC50 ([2]; Jurkat-endothelial cell adhesion, peptides tested at 200, 40, 8, 1.6, 0.32, 0.064 μM): 6.05
11 | RC*D(TTC)C* [Peptide 122] | 6 | –
